Measurements taken from the NIST ThermoML archive (doi:10.1016/j.jct.2012.05.003).
Numbers after ± are expanded uncertainties.

Conditions: for molar entropy: Vacuum adiabatic calorimetry

O=C1c2ccccc2-c2ccccc21 [9(9H)-fluorenone]
Conditions | molar entropy [J/K/mol] | vapor or sublimation pressure [kPa]
5 K, 101.33 kPa, Crystal | 0.2 ± 0.017 | –
10 K, 101.33 kPa, Crystal | 1.47 ± 0.025 | –
20 K, 101.33 kPa, Crystal | 7.81 ± 0.083 | –
30 K, 101.33 kPa, Crystal | 16.59 ± 0.083 | –
40 K, 101.33 kPa, Crystal | 26.02 ± 0.11 | –
50 K, 101.33 kPa, Crystal | 35.44 ± 0.13 | –
60 K, 101.33 kPa, Crystal | 44.68 ± 0.16 | –
70 K, 101.33 kPa, Crystal | 53.57 ± 0.17 | –
80 K, 101.33 kPa, Crystal | 62.15 ± 0.2 | –
90 K, 101.33 kPa, Crystal | 70.45 ± 0.32 | –
100 K, 101.33 kPa, Crystal | 78.48 ± 0.32 | –
120 K, 101.33 kPa, Crystal | 93.91 ± 0.34 | –
140 K, 101.33 kPa, Crystal | 108.7 ± 0.37 | –
160 K, 101.33 kPa, Crystal | 123.08 ± 0.39 | –
180 K, 101.33 kPa, Crystal | 137.18 ± 0.42 | –
200 K, 101.33 kPa, Crystal | 151.1 ± 0.43 | –
220 K, 101.33 kPa, Crystal | 164.93 ± 0.46 | –
240 K, 101.33 kPa, Crystal | 178.73 ± 0.48 | –
260 K, 101.33 kPa, Crystal | 192.51 ± 0.51 | –
280 K, 101.33 kPa, Crystal | 206.3 ± 0.53 | –
298.15 K, 101.33 kPa, Crystal | 218.82 ± 0.55 | –
300 K, 101.33 kPa, Crystal | 220.1 ± 0.56 | –
320 K, 101.33 kPa, Crystal | 233.91 ± 0.58 | –
340 K, 101.33 kPa, Crystal | 247.73 ± 0.61 | –
340 K, 101.33 kPa, Liquid | 291.47 ± 0.68 | –
356.52 K, 101.33 kPa, Crystal | 259.19 ± 0.62 | –
356.52 K, 101.33 kPa, Liquid | 305.07 ± 0.71 | –
360 K, 101.33 kPa, Liquid | 307.89 ± 0.71 | –
368.12 K, Liquid, Inclined piston gauge | – | 0.0161 ± 0.0008
378.12 K, Liquid, Inclined piston gauge | – | 0.0308 ± 0.0008
380 K, 101.33 kPa, Liquid | 323.92 ± 0.74 | –
388.12 K, Liquid, Inclined piston gauge | – | 0.0562 ± 0.0009
398.12 K, Liquid, Inclined piston gauge | – | 0.0987 ± 0.0009
400 K, 101.33 kPa, Liquid | 339.6 ± 0.76 | –
408.12 K, Liquid, Inclined piston gauge | – | 0.1672 ± 0.0009
418.12 K, Liquid, Inclined piston gauge | – | 0.2744 ± 0.001
420 K, 101.33 kPa, Liquid | 354.94 ± 0.79 | –
428.11 K, Liquid, Inclined piston gauge | – | 0.4382 ± 0.0013
438.11 K, Liquid, Inclined piston gauge | – | 0.6825 ± 0.0015
440 K, 101.33 kPa, Liquid | 369.98 ± 0.82 | –
448.11 K, Liquid, Inclined piston gauge | – | 1.038 ± 0.0019
458.11 K, Liquid, Inclined piston gauge | – | 1.544 ± 0.0023
460 K, 101.33 kPa, Liquid | 384.73 ± 0.85 | –
464.96 K, Liquid, Twin ebulliometer | – | 2 ± 0.008
468.11 K, Liquid, Inclined piston gauge | – | 2.25 ± 0.003
472.82 K, Liquid, Twin ebulliometer | – | 2.666 ± 0.0082
478.11 K, Liquid, Inclined piston gauge | – | 3.216 ± 0.0039
480 K, 101.33 kPa, Liquid | 399.2 ± 0.87 | –
483.11 K, Liquid, Inclined piston gauge | – | 3.821 ± 0.0045
493.2 K, Liquid, Twin ebulliometer | – | 5.333 ± 0.0086
500 K, 101.33 kPa, Liquid | 413.42 ± 0.9 | –
506.16 K, Liquid, Twin ebulliometer | – | 7.999 ± 0.0093
515.86 K, Liquid, Twin ebulliometer | – | 10.67 ± 0.01
520 K, 101.33 kPa, Liquid | 427.39 ± 0.92 | –
523.7 K, Liquid, Twin ebulliometer | – | 13.33 ± 0.011
531.86 K, Liquid, Twin ebulliometer | – | 16.66 ± 0.012
538.62 K, Liquid, Twin ebulliometer | – | 19.93 ± 0.014
547.52 K, Liquid, Twin ebulliometer | – | 25.02 ± 0.016
547.53 K, Liquid, Twin ebulliometer | – | 25.02 ± 0.015
556.48 K, Liquid, Twin ebulliometer | – | 31.17 ± 0.018
565.49 K, Liquid, Twin ebulliometer | – | 38.56 ± 0.021
574.56 K, Liquid, Twin ebulliometer | – | 47.37 ± 0.025
583.67 K, Liquid, Twin ebulliometer | – | 57.81 ± 0.028
592.85 K, Liquid, Twin ebulliometer | – | 70.11 ± 0.033
602.07 K, Liquid, Twin ebulliometer | – | 84.53 ± 0.038
611.34 K, Liquid, Twin ebulliometer | – | 101.32 ± 0.05
620.67 K, Liquid, Twin ebulliometer | – | 120.78 ± 0.05
630.05 K, Liquid, Twin ebulliometer | – | 143.23 ± 0.06
639.47 K, Liquid, Twin ebulliometer | – | 169 ± 0.07
648.95 K, Liquid, Twin ebulliometer | – | 198.46 ± 0.07
658.48 K, Liquid, Twin ebulliometer | – | 231.99 ± 0.08
668.07 K, Liquid, Twin ebulliometer | – | 269.98 ± 0.09

Conditions | mass density [kg/m3]
373 K, 101.33 kPa, Liquid, Pycnometric method | 1090 ± 10

Conditions | Triple point temperature [K]
Crystal, Adiabatic calorimetry | 356.52 ± 0.039
